Patent publication US7750016B2, “Hydroxyalkyl substituted pyrido-7-pyrimidin-7-ones” (Roche Palo Alto LLC, priority 2003, dated 2010)
Where a name gives a salt, the structure may show the parent alone.

test system: LPS-induced IL-1β production in undiluted human whole blood; assay: human whole blood (HWB) in vitro assay, IL-1β ELISA; format: cell-based; conditions: 0.5 μg/mL LPS, 18 hours, 30 min pre-incubation
Description: LPS (lipopolysaccharide) treatment of human whole blood induces IL-1β (Interleukin-1β) production that can be measured by an IL-1β specific ELISA. Human whole blood was pre-incubated with the indicated concentrations of a compound of the present invention in 0.5% DMSO (final concentration) for 30 min at 37° C. Samples were stimulated with 0.5 μg/mL of lipopolysaccharide (LPS, from Sigma) (final concentration) for 18 hours to induce the synthesis and secretion of IL-1β which was measured using an IL-1β ELISA.
A stock solution of 6 mM in DMSO (from Sigma) was prepared by dissolving the compound in DMSO in 449 μL of DMSO. From the 6 mM stock solution, six subsequent half-log serial dilutions in DMSO were performed to give the following concentrations: 1.9 mM, 600, 190, 60, 19, and 6 μM. […] 216 μL DMSO was placed in each of tubes 2-7.
Reconstitution of LPS: in the 10 mg. vial of LPS, 10 mL 1× Phosphate-Buffered Saline (i.e., 1×PBS, from Gibco-BRL) was added, mixed well and transferred to a 50 mL tube. Another 10 mL was added to the LPS vial, followed by rinsing, and this rinse was added to the 50 mL tube and mixed will. The solution was filtered and sterilized, and aliquotted in desired amounts (100 μL aliquot was sufficient for 4 plates). This yielded a 0.5 mg/mL stock which was diluted 1/100 for use in protocol. Just prior to use, the LPS stock was diluted 1/100 (100 μL in 10 mL of RPMI) […]

IC50	Compound
1 nM	C[C@@H](O)Cn1c(=O)c(Oc2ccc(F)cc2F)cc2cnc(NC3CCOCC3)nc21 [Compound 20, 6-(2,4-Difluoro-phenoxy)-8-((R)-2-hydroxy-propyl)-2-(tetrahydro-pyran-4-ylamino)-8H-pyrido[2,3-d]pyrimidin-7-one]

test system: not given; assay: not given; conditions: not given

Compound	melting point
C[C@H](O)Cn1c(=O)c(Oc2ccc(F)cc2F)cc2cnc(N[C@@H](C)CO)nc21 (as salt: hydrochloride) [Compound 16, 6-(2,4-Difluoro-phenoxy)-2-((S)-2-hydroxy-1-methyl-ethylamino)-8-((S)-2-hydroxy-propyl)-8H-pyrido[2,3-d]pyrimidin-7-one]	175.1 to 179.1 °C
C[C@H](O)Cn1c(=O)c(Oc2ccc(F)cc2F)cc2cnc(N[C@H](C)CO)nc21 (as salt: hydrochloride) [Compound 17, 6-(2,4-Difluoro-phenoxy)-2-((R)-2-hydroxy-1-methyl-ethylamino)-8-((S)-2-hydroxy-propyl)-8H-pyrido[2,3-d]pyrimidin-7-one]	174.9 to 178.1 °C
C[C@@H](O)Cn1c(=O)c(Oc2ccc(F)cc2F)cc2cnc(N[C@@H](C)CO)nc21 (as salt: hydrochloride) [Compound 41, 6-(2,4-Difluoro-phenoxy)-2-((S)-2-hydroxy-1-methyl-ethylamino)-8-((R)-2-hydroxy-propyl)-8H-pyrido[2,3-d]pyrimidin-7-one]	186 to 189.1 °C
CC(=O)Cn1c(=O)c(Oc2ccc(F)cc2F)cc2cnc(N[C@@H](C)CO)nc21 (as salt: hydrochloride) [Compound 45, 6-(2,4-Difluoro-phenoxy)-2-((S)-2-hydroxy-1-methyl-ethylamino)-8-(2-oxo-propyl)-8H-pyrido[2,3-d]pyrimidin-7-one]	207.9 to 214.6 °C
CC(=O)Cn1c(=O)c(Oc2ccc(F)cc2F)cc2cnc(N[C@H](C)CO)nc21 (as salt: hydrochloride) [Compound 46, 6-(2,4-Difluoro-phenoxy)-2-((R)-2-hydroxy-1-methyl-ethylamino)-8-(2-oxo-propyl)-8H-pyrido[2,3-d]pyrimidin-7-one]	207.8 to 216.4 °C

Continued, values first:

melting point	Compound
182 to 183.9 °C	C[C@@H](O)Cn1c(=O)c(Oc2ccc(F)cc2F)cc2cnc(NC(C)(C)CO)nc21 (as salt: hydrochloride) [Compound 31, 6-(2,4-Difluoro-phenoxy)-2-(2-hydroxy-1,1-dimethyl-ethylamino)-8-((R)-2-hydroxy-propyl)-8H-pyrido[2,3-d]pyrimidin-7-one]
187.4 to 189.9 °C	C[C@H](O)Cn1c(=O)c(Oc2ccc(F)cc2F)cc2cnc(NC(C)(C)CO)nc21 (as salt: hydrochloride) [Compound 36, 6-(2,4-Difluoro-phenoxy)-2-(2-hydroxy-1,1-dimethyl-ethylamino)-8-((S)-2-hydroxy-propyl)-8H-pyrido[2,3-d]pyrimidin-7-one]
181.5 to 184.4 °C	C[C@H](CO)Nc1ncc2cc(Oc3ccc(F)cc3F)c(=O)n(C[C@@H](C)O)c2n1 (as salt: hydrochloride) [Compound 42, 6-(2,4-Difluoro-phenoxy)-2-((R)-2-hydroxy-1-methyl-ethylamino)-8-((R)-2-hydroxy-propyl)-8H-pyrido[2,3-d]pyrimidin-7-one]
